# Reference: ChEMBL document CHEMBL4118087, “Inhibitors of CD73 May Provide a Treatment for Cancer and Autoimmune Diseases” (ACS Med Chem Lett, 2017)
# Target: 5'-nucleotidase (Homo sapiens, UniProt P21589, T376A)
# Test: Inhibition of human flag-tagged CD73 Thr376Ala mutant (1 to 552 residues) assessed as reduction in conversion of AMP to adenosine incubated for 10 mins followed by AMP addition measured after 30 mins by RapidFire mass spectrometric analysis
# 5'-nucleotidase, sequence (P21589 27-549 T376A limits assumed): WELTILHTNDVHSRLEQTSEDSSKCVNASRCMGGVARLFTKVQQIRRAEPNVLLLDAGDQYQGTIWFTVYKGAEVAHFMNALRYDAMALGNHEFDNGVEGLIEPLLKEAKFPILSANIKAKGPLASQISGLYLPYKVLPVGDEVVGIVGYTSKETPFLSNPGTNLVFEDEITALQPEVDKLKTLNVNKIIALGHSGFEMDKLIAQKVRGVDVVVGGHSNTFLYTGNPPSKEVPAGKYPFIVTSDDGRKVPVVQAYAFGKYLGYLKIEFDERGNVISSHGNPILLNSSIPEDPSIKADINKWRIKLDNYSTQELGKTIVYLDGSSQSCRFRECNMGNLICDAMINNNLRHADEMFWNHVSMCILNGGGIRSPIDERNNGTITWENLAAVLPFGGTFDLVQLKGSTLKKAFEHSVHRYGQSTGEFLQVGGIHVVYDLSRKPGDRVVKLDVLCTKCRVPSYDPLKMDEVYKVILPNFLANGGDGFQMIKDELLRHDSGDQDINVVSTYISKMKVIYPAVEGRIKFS
row,SMILES,IC50 [nM]
1,Cc1ccc(NC2=Nc3c(O)cc(Cl)cc3S(=O)(=O)N2)cc1,1000
2,O=S1(=O)NC(Nc2cccc3[nH]ccc23)=Nc2c(O)cc(Cl)cc21,≤ 316
3,O=S1(=O)N=C(Nc2cc(F)c3[nH]ccc3c2)Nc2c(O)cc(Cl)c(Br)c21,63.1

# Continued by falling IC50, values first:
row,IC50 [nM],SMILES
1,3160,CN(C)C(=O)Cc1cccc(NC2=Nc3c(O)cc(Cl)cc3S(=O)(=O)N2)c1
2,100,O=S1(=O)NC(Nc2cccc(O)c2)=Nc2c(O)cc(F)cc21
3,15.8,O=S1(=O)NC(Nc2cccc3[nH]ncc23)=Nc2c1cc(Cl)c(F)c2O
